Patent US20250127770A1, “FORMULATIONS OF RADIPRODIL” (GRIN Therapeutics, Inc., priority 2021, published 2025)

How the values were obtained:
[1] = Stability study of radiprodil solid forms (dihydrate vs anhydrous form A); type: physicochemical; details: in presence of water
[2] = Dissolution test, USPII paddle apparatus, 0.5% sodium lauryl sulphate solution in water; type: physicochemical; details: without reconstitution in SYRSPEND SF and water prior to the test; FIG. 2
Protocol: This study summarizes dissolution experiments preformed on the radiprodil drug substance and on the drug product including two drug loadings with and without reconstitution in SYRSPEND® and water prior to the dissolution test.
All dissolution experiments were performed on six vessels and the comparative curves were plotted using the average of them.
Some dissolution experiments were performed using prior to the dissolution a reconstitution in Syrpend® and water. In that case, the reconstitution was prepared and let under stirring for 1 night prior to the dissolution test. In order to mimic the clinical pharmacy manual, an additional test was performed with an extemporaneous suspension (15 min under stirring prior to the dissolution).
Dissolution and high performance liquid chromatography (HPLC) parameters used in the experiments are provided below in Tables […] and 12, respectively.
Radiprodil, as the dihydrate and Form A, as well as Form A containing granules (1% and 10% as described above) and blends of dihydrate and Form A (1% and 10% blends of dihydrate form and Form A) were submitted to dissolution tests in sodium lauryl sulfate (0.5% in water). […]

SMILES	Stability of solid form [1]	Dissolution profile [2]
O=C(Nc1ccc2[nH]c(=O)oc2c1)C(=O)N1CCC(Cc2ccc(F)cc2)CC1 (single isomer, unassigned) [anhydrous form A, Radiprodil]	more stable than the dihydrate even in presence of water	–
O=C(Nc1ccc2[nH]c(=O)oc2c1)C(=O)N1CCC(Cc2ccc(F)cc2)CC1 [dihydrate form, Radiprodil]	–	more rapid in aqueous media than the one of anhydrous form A
